Compound: O=c1cc(-c2ccc(O)c(O)c2)oc2cc(O)cc(O)c12
- solubility (mole fraction) (in DMSO, 298.2 K): 0.0515
- solubility (mole fraction) (in DMSO, 303.2 K): 0.0564
- solubility (mole fraction) (in DMSO, 308.2 K): 0.0615
- solubility (mole fraction) (in DMSO, 313.2 K): 0.0665
- solubility (mole fraction) (in DMSO, 318.2 K): 0.0715
- solubility (mole fraction) (in PEG-400, 298.2 K): 0.1
- solubility (mole fraction) (in PEG-400, 303.2 K): 0.106
- solubility (mole fraction) (in PEG-400, 308.2 K): 0.113
- solubility (mole fraction) (in PEG-400, 313.2 K): 0.119
- solubility (mole fraction) (in PEG-400, 318.2 K): 0.127
- solubility (mole fraction) (in ethanol, 298.2 K): 0.00188
- solubility (mole fraction) (in ethanol, 303.2 K): 0.00209
- solubility (mole fraction) (in ethanol, 308.2 K): 0.00241
- solubility (mole fraction) (in ethanol, 313.2 K): 0.00273
- solubility (mole fraction) (in ethanol, 318.2 K): 0.00308
- solubility (mole fraction) (in ethyl acetate, 298.2 K): 0.00261
- solubility (mole fraction) (in ethyl acetate, 303.2 K): 0.00313
- solubility (mole fraction) (in ethyl acetate, 308.2 K): 0.00368
- solubility (mole fraction) (in ethyl acetate, 313.2 K): 0.00438
- solubility (mole fraction) (in ethyl acetate, 318.2 K): 0.00511
- solubility (mole fraction) (in ethylene glycol, 298.2 K): 0.0013
- solubility (mole fraction) (in ethylene glycol, 303.2 K): 0.00158
- solubility (mole fraction) (in ethylene glycol, 308.2 K): 0.0019
- solubility (mole fraction) (in ethylene glycol, 313.2 K): 0.00229
- solubility (mole fraction) (in ethylene glycol, 318.2 K): 0.00268
- solubility (mole fraction) (in isopropanol, 298.2 K): 0.00251
- solubility (mole fraction) (in isopropanol, 303.2 K): 0.00278
- solubility (mole fraction) (in isopropanol, 308.2 K): 0.00316
- solubility (mole fraction) (in isopropanol, 313.2 K): 0.00366
- solubility (mole fraction) (in isopropanol, 318.2 K): 0.00414
- solubility (mole fraction) (in methanol, 298.2 K): 0.00047
- solubility (mole fraction) (in methanol, 303.2 K): 0.000537
- solubility (mole fraction) (in methanol, 308.2 K): 0.000638
- solubility (mole fraction) (in methanol, 313.2 K): 0.000727
- solubility (mole fraction) (in methanol, 318.2 K): 0.000816
- solubility (mole fraction) (in n-butanol, 298.2 K): 0.00335
- solubility (mole fraction) (in n-butanol, 303.2 K): 0.00369
- solubility (mole fraction) (in n-butanol, 308.2 K): 0.00415
- solubility (mole fraction) (in n-butanol, 313.2 K): 0.00477
- solubility (mole fraction) (in n-butanol, 318.2 K): 0.00536
- solubility (mole fraction) (in propylene glycol, 298.2 K): 0.00212
- solubility (mole fraction) (in propylene glycol, 303.2 K): 0.00249
- solubility (mole fraction) (in propylene glycol, 308.2 K): 0.00289
- solubility (mole fraction) (in propylene glycol, 313.2 K): 0.00336
- solubility (mole fraction) (in propylene glycol, 318.2 K): 0.00389
- solubility (mole fraction) (in sec-butanol, 298.2 K): 0.0035
- solubility (mole fraction) (in sec-butanol, 303.2 K): 0.00381
- solubility (mole fraction) (in sec-butanol, 308.2 K): 0.00435
- solubility (mole fraction) (in sec-butanol, 313.2 K): 0.00489
- solubility (mole fraction) (in sec-butanol, 318.2 K): 0.00553
- solubility (mole fraction) (in transcutol, 298.2 K): 0.0309
- solubility (mole fraction) (in transcutol, 303.2 K): 0.0331
- solubility (mole fraction) (in transcutol, 308.2 K): 0.0354
- solubility (mole fraction) (in transcutol, 313.2 K): 0.0378
- solubility (mole fraction) (in transcutol, 318.2 K): 0.0401
- solubility (mole fraction) (in water, 298.2 K): 1.75e-06
- solubility (mole fraction) (in water, 303.2 K): 2.24e-06
- solubility (mole fraction) (in water, 308.2 K): 2.83e-06
- solubility (mole fraction) (in water, 313.2 K): 3.49e-06
- solubility (mole fraction) (in water, 318.2 K): 4.17e-06
